Source: patent publication US12673975B2, “Cyclic peptide, cell scaffold material, cell separating material, and medium” (FUJIFILM Corporation, priority 2019, dated 2026)
Where two headings read alike, the source gives them in different places. Starred links: 1 amine or outer side, 2 acyl side, 3 side chain; linkers in the order of their positions; H or OH if unused. Positions of bridges follow the written chain, without caps; N, C: chain ends. Non-standard residues stand in square brackets, D forms with d. Residues, ends and D or L forms follow the SMILES beside them. hCys = N[C@@H](CCS)C(=O)O; Dab = NCC[C@H](N)C(=O)O; X1 = O=C(C[*:2])[*:1]; X2 = O=C(C[*:1])[*:2]

How the values were obtained:
[1] = Evaluation of molecule stability (alkali treatment, residual rate by LC/MS); assay type: physicochemical; details: for Stability (molecule stability, residual rate of the cyclic peptide rank): alkali treatment, residual rate by LC/MS; for Performance evaluation: Stability (residual rate of cyclic peptide after alkali treatment): 500 μM peptide aqueous solution plus equivalent of 1 M sodium hydroxide, 15° C., 3 hours, LC/MS peak area
Experimental: The molecule stability of the cyclic peptide was evaluated by analyzing the alkali-treated cyclic peptide aqueous solution by liquid chromatography mass spectroscopy (LC/MS).
The alkali treatment was carried out by the following method. A 500 μM cyclic peptide aqueous solution was prepared, an equivalent of 1 M sodium hydroxide aqueous solution was added to this aqueous solution, and the resultant mixture was incubated at 15° C. for 3 hours to obtain an alkali-treated cyclic peptide aqueous solution. The cyclic peptide residual rate was calculated by setting the total area of all peaks of the cyclic peptide before alkali treatment in LC/MS to 100% and determining the proportion of the total area of all peaks in LC/MS of the alkali-treated cyclic peptide aqueous solution, and the molecule stability was evaluated according to the following evaluation standards. It is preferable that the evaluation result satisfies the evaluation standard A, B, or C.
The conditions of the LC/MS used for the evaluation of molecule stability were set as follows. • LC apparatus: Prominence series (pump, column oven, autosampler, detector) (manufactured by Shimadzu Corporation) • MS detector: LC/MS2010EV (manufactured by Shimadzu Corporation) • Column: Cadenza CD-C18, inner diameter 2.0 mm×length 250 mm, particle size: 3 μm (manufactured by Imtakt Corporation) • Eluent A: a solution (pH 3) containing 10 mM ammonium formate as a solute, where the solvent is 100% water. • Eluent B: a solution (pH 3) containing 10 mM ammonium formate as a solute, where the solvent is acetonitrile/water=90/10. • Flow rate: 0.2 mL/min • Injection volume: 4 μL • Gradient: 0% to 30%: Eluent B (0 to 30 minutes), 100%: Eluent B (30 to 40 minutes), 0%: Eluent B (40 to 60 minutes) • Column temperature: 45° C. • Ionization method: electrospray ionization (ESI) positive, ESI negative

human integrin αvβ5 = human integrin αvβ5 (Homo sapiens, UniProt P06756+P18084); experiment: Evaluation of integrin binding property (surface plasmon resonance, Biacore 3000, immobilized cyclic peptide)
Experimental: A commercially available CMS (a carboxymethyl dextran introduction type, manufactured by GE Healthcare) sensor chip was set in Biacore 3000, which is a surface plasmon resonance apparatus manufactured by GE Healthcare, the sensor was stabilized at a flow rate of 10 μL/min of a HEPES (4-(2-hydroxyethyl)-1-piperazineethanesulfonic acid) buffer solution (20 mM HEPES-HCl, 150 mM NaCl, pH 7.4) for surface plasmon resonance (SPR), and 70 μL of a mixed aqueous solution of 0.2 M 1-(3-dimethylaminopropyl)-3-ethylcarbodiimide (EDC) and 0.04 M N-hydroxysuccinimide (NHS) was added thereto. Here, the concentration unit M represents mol/L, and the same applies hereinafter. Then, 20 μL of the sample solution of each of the above cyclic peptides diluted to 0.2 g/L with the HEPES buffer solution was supplied to the sensor chip, blocking treatment was subsequently carried out with an ethanolamine solution, and washing was carried out with a sodium hydroxide aqueous solution, whereby immobilization was carried out. However, only for the cyclic peptides 125, 126, and 127, in which the number of lysine residues having an amino group as the immobilizing functional group was zero, the amount of the sample solution to be supplied to the sensor chip was set to 500 μL instead of 20 μL. Further, 70 μL of the mixed aqueous solution of 0.2 M EDC and 0.04 M NHS was added to another flow channel of the same sensor chip without immobilizing the sample, and then blocking treatment and washing treatment were carried out. Hereinafter, the obtained immobilization-treated sensor chip is referred to as an “immobilization-treated sensor chip A”.
After adding human integrin αvβ5 for 10 minutes at 25° C., which was diluted to 30 nM using a HEPES buffer solution to which magnesium chloride was added to 5 mM, in each flow channel of the immobilization-treated sensor chip A prepared in (1) above, the same HEPES buffer solution (containing 5 mM magnesium chloride) was allowed to flow as a running buffer for 30 minutes, and measurement was carried out with Biacore 3000. Then, a regeneration treatment of removing human integrin αvβ5 was carried out by allowing a 0.5 M EDTA aqueous solution to flow through each flow channel for 10 minutes. Further, the above-described measurement process consisting of adding integrin for 10 minutes, allowing a running buffer to flow for 30 minutes, carrying out measurement with Biacore 3000, and carrying out regeneration treatment with 0.5 M EDTA aqueous solution was carried out in the same manner for 100 nM human integrin αvβ5, 300 nM human integrin αvβ5, and 1,000 nM human integrin αvβ5. Dissociation constant between the cyclic peptide and human integrin αvβ5 was calculated from the difference between the value measured by Biacore 3000 in the flow channel immobilized with the cyclic peptide and the value measured by Biacore 3000 in the flow channel unimmobilized with the cyclic peptide, in a case where each concentration of human integrin αvβ5 was allowed to flow, and the integrin binding property was evaluated according to the following evaluation standards. It is preferable that the evaluation result satisfies the evaluation standard A, B, or C.

[2] = surface plasmon resonance, immobilized cyclic peptide, human integrin αvβ5, read-out: Binding activity (integrin binding property, dissociation constant rank)
[3] = SPR, 25° C., HEPES buffer with 5 mM magnesium chloride, integrin 30-1,000 nM, read-out: Performance evaluation: Binding activity (dissociation constant between the cyclic peptide and human integrin αvβ5)

Chain of human integrin αvβ5 (P06756 31-1048): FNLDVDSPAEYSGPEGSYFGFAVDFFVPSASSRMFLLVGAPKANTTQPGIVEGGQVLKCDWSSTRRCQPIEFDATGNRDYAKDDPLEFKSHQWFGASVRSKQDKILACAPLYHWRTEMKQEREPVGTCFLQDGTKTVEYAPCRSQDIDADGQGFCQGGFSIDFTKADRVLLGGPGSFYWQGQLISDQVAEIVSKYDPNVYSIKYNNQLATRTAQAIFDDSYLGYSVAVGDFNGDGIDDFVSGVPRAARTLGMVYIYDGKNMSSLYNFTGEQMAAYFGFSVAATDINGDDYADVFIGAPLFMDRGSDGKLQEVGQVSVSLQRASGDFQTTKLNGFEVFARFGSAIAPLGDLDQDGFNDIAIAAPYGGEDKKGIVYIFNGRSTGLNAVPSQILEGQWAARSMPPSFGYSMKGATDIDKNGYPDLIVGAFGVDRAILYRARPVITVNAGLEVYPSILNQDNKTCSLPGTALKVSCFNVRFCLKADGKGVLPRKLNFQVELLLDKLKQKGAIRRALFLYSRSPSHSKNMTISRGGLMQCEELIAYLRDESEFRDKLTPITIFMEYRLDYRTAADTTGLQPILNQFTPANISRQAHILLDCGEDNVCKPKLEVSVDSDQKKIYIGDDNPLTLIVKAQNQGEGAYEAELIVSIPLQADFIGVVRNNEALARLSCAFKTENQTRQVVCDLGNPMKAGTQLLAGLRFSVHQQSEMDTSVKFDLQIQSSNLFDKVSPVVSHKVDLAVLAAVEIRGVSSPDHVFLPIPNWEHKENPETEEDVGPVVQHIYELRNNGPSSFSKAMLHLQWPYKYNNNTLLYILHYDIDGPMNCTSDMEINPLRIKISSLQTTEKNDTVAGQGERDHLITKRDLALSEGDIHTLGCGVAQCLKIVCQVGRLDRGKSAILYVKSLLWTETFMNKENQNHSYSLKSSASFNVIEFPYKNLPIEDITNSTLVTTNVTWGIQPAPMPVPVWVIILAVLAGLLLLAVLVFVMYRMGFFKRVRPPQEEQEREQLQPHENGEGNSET
Chain of human integrin αvβ5 (P18084 24-799): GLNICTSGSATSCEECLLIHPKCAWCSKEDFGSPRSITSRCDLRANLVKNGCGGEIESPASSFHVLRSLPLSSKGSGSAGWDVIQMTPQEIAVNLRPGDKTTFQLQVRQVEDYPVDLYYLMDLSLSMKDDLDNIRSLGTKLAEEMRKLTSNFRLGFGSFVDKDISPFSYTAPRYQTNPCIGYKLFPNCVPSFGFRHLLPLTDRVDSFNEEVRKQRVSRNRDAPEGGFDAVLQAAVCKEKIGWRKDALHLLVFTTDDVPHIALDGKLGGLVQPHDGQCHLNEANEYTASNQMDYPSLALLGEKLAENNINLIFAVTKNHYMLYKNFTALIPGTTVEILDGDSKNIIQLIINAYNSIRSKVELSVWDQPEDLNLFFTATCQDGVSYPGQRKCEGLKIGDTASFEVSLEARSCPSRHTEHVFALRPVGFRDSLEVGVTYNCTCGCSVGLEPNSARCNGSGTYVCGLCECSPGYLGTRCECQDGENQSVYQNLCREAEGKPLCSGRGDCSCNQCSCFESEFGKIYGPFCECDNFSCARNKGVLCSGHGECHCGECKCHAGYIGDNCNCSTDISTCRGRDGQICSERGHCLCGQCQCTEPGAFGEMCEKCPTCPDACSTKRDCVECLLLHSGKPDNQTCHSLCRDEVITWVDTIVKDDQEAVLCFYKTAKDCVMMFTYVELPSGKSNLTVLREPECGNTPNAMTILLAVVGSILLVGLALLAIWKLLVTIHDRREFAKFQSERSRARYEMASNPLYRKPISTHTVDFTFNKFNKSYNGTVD

| SMILES | Kd (human integrin αvβ5; [2]) [nM] | Kd (human integrin αvβ5; [3]) [nM] | Stability (molecule stability, residual rate of the cyclic peptide rank) [1] | Performance evaluation: Stability (residual rate of cyclic peptide after alkali treatment) [1] |
| --- | --- | --- | --- | --- |
| CC[C@H](C)[C@@H]1NC(=O)[C@@H](NC(=O)[C@H](C)N)CCSCC(=O)NCC[C@@H](C(=O)N[C@@H](C)C(=O)O)NC(=O)[C@H](C)NC(=O)[C@H](Cc2ccccc2)NC(=O)[C@H](CO)NC(=O)[C@H](CC(=O)O)NC(=O)CNC(=O)[C@H](CCCNC(=N)N)NC(=O)[C@@H]2CCCN2C1=O [Cyclic peptide 126, A-(Hcy)-IPRGDSFA(Dab(acetyl))A] (H-A[hCys]IPRGDSFA[Dab]A-OH; linker 2-11 via X2) | < 50 |  | A (The residual rate of the cyclic peptide is 70% or more.) |  |
| CC(C)[C@@H]1NC(=O)[C@@H](NC(=O)[C@H](CCCCN)NC(=O)[C@H](CCCCN)NC(=O)[C@@H](N)CCCCN)CCSCC(=O)NCC[C@@H](C(=O)O)NC(=O)[C@H](Cc2ccccc2)NC(=O)[C@H]([C@@H](C)O)NC(=O)[C@H](CC(=O)O)NC(=O)CNC(=O)[C@H](CCCNC(=N)N)NC(=O)[C@@H]2CCCN2C1=O [Cyclic peptide 64, KKK-(Hcy)-VPRGDTF(Dab(acetyl))] (H-KKK[hCys]VPRGDTF[Dab]-OH; linker 4-12 via X2) |  | < 50 |  | A (The residual rate of the cyclic peptide is 70% or more.) |
| C[C@H](NC(=O)[C@H](CCCCN)NC(=O)[C@H](CCCCN)NC(=O)[C@@H](N)CCCCN)C(=O)N[C@H]1CCSCC(=O)NCC[C@@H](C(=O)N[C@@H](CCC(=O)O)C(=O)O)NC(=O)[C@H](CCCNC(=N)N)NC(=O)[C@H](Cc2ccc(O)cc2)NC(=O)[C@H](CC(N)=O)NC(=O)[C@H](CC(=O)O)NC(=O)CNC(=O)[C@H](CCCNC(=N)N)NC(=O)[C@@H]2CCCN2C(=O)[C@H](CCC(=O)O)NC1=O [Cyclic peptide 43, KKKA-(Hcy)-EPRGDNYR(Dab(acetyl))E] (H-KKKA[hCys]EPRGDNYR[Dab]E-OH; linker 5-14 via X2) |  | 50 to 100 |  | A (The residual rate of the cyclic peptide is 70% or more.) |
| CC(C)[C@@H]1NC(=O)[C@@H](NC(=O)[C@H](CCCCN)NC(=O)[C@H](CCCCN)NC(=O)[C@@H](N)CCCCN)CCSCC(=O)NCC[C@@H](C(=O)O)NC(=O)[C@H](C)NC(=O)[C@H](Cc2ccccc2)NC(=O)[C@H](CO)NC(=O)[C@H](CC(=O)O)NC(=O)CNC(=O)[C@H](CCCNC(=N)N)NC(=O)[C@@H]2CCCN2C1=O [Cyclic peptide 102, KKK-(Hcy)-VPRGDSFA(Dab(acetyl))] (H-KKK[hCys]VPRGDSFA[Dab]-OH; linker 4-13 via X2) | < 50 |  | A (The residual rate of the cyclic peptide is 70% or more.) |  |
| CC[C@H](C)[C@@H]1NC(=O)[C@@H](NC(=O)CNC(=O)[C@H](CCCCN)NC(=O)[C@H](CCCCN)NC(=O)[C@@H](N)CCCCN)CCSCC(=O)NCC[C@@H](C(=O)N[C@@H](C)C(=O)O)NC(=O)[C@H](Cc2ccccc2)NC(=O)[C@H](CC(N)=O)NC(=O)[C@H](CC(=O)O)NC(=O)CNC(=O)[C@H](CCCNC(=N)N)NC(=O)[C@@H]2CCCN2C1=O [Cyclic peptide 6, KKKG-(Hcy)-IPRGDNF(Dab(acetyl))A] (H-KKKG[hCys]IPRGDNF[Dab]A-OH; linker 5-13 via X2) |  | 50 to 100 |  | A (The residual rate of the cyclic peptide is 70% or more.) |
| CC(C)[C@@H]1NC(=O)[C@@H](NC(=O)[C@H](CCCCN)NC(=O)[C@H](CCCCN)NC(=O)[C@@H](N)CCCCN)CCSCC(=O)NCC[C@@H](C(=O)O)NC(=O)[C@H](C)NC(=O)[C@H](Cc2ccccc2)NC(=O)[C@H]([C@@H](C)O)NC(=O)[C@H](CC(=O)O)NC(=O)CNC(=O)[C@H](CCCNC(=N)N)NC(=O)[C@@H]2CCCN2C1=O [Cyclic peptide 104, KKK-(Hcy)-VPRGDTFA(Dab(acetyl))] (H-KKK[hCys]VPRGDTFA[Dab]-OH; linker 4-13 via X2) | < 50 |  | A (The residual rate of the cyclic peptide is 70% or more.) |  |

The next lines start with results.

| Kd (human integrin αvβ5; [2]) [nM] | Kd (human integrin αvβ5; [3]) [nM] | SMILES | Stability (molecule stability, residual rate of the cyclic peptide rank) [1] | Performance evaluation: Stability (residual rate of cyclic peptide after alkali treatment) [1] |
| --- | --- | --- | --- | --- |
| < 50 |  | CC[C@H](C)[C@@H]1NC(=O)[C@@H](NC(=O)[C@H](CCCCN)NC(=O)[C@H](CCCCN)NC(=O)[C@@H](N)CCCCN)CCSCC(=O)NCC[C@@H](C(=O)N[C@@H](C)C(=O)O)NC(=O)[C@H](C)NC(=O)[C@H](Cc2ccccc2)NC(=O)[C@H](CO)NC(=O)[C@H](CC(=O)O)NC(=O)CNC(=O)[C@H](CCCNC(=N)N)NC(=O)[C@@H]2CCCN2C1=O [Cyclic peptide 163, KKK-(Hcy)-IPRGDSFA(Dab(acetyl))A] (H-KKK[hCys]IPRGDSFA[Dab]A-OH; linker 4-13 via X2) | A (The residual rate of the cyclic peptide is 70% or more.) |  |
|  | 50 to 100 | C[C@H](NC(=O)[C@@H]1CCNC(=O)CSCC[C@H](NC(=O)[C@H](CCCCN)NC(=O)[C@H](CCCCN)NC(=O)[C@@H](N)CCCCN)C(=O)N[C@@H](CC(=O)O)C(=O)N2CCC[C@H]2C(=O)N[C@@H](CCCNC(=N)N)C(=O)NCC(=O)N[C@@H](CC(=O)O)C(=O)N[C@@H](CC(N)=O)C(=O)N[C@@H](Cc2ccccc2)C(=O)N[C@@H](CCCNC(=N)N)C(=O)N1)C(=O)O [Cyclic peptide 22, KKK-(Hcy)-DPRGDNFR(Dab(acetyl))A] (H-KKK[hCys]DPRGDNFR[Dab]A-OH; linker 4-13 via X2) |  | A (The residual rate of the cyclic peptide is 70% or more.) |
|  | 50 to 100 | N=C(N)NCCC[C@@H]1NC(=O)[C@H](Cc2ccc(O)cc2)NC(=O)[C@H](CC(N)=O)NC(=O)[C@H](CC(=O)O)NC(=O)CNC(=O)[C@H](CCCNC(=N)N)NC(=O)[C@@H]2CCCN2C(=O)[C@H](CCC(=O)O)NC(=O)[C@@H](NC(=O)[C@H](CCCCN)NC(=O)[C@H](CCCCN)NC(=O)[C@@H](N)CCCCN)CCSCC(=O)NCC[C@@H](C(=O)O)NC1=O [Cyclic peptide 44, KKK-(Hcy)-EPRGDNYR(Dab(acetyl))] (H-KKK[hCys]EPRGDNYR[Dab]-OH; linker 4-13 via X2) |  | A (The residual rate of the cyclic peptide is 70% or more.) |
| < 50 |  | CC(C)[C@@H]1NC(=O)[C@@H](NC(=O)[C@H](C)NC(=O)[C@H](CCCCN)NC(=O)[C@H](CCCCN)NC(=O)[C@@H](N)CCCCN)CCNC(=O)CSCC[C@@H](C(=O)N[C@@H](C)C(=O)O)NC(=O)[C@H](C)NC(=O)[C@H](Cc2ccccc2)NC(=O)[C@H]([C@@H](C)O)NC(=O)[C@H](CC(=O)O)NC(=O)CNC(=O)[C@H](CCCNC(=N)N)NC(=O)[C@@H]2CCCN2C1=O [Cyclic peptide 122, KKKA(Dab(acetyl))VPRGDTFA-(Hcy)-A] (H-KKKA[Dab]VPRGDTFA[hCys]A-OH; linker 5-14 via X1) | A (The residual rate of the cyclic peptide is 70% or more.) |  |
